Assay results taken from patent US20180021429A1, “ANTICANCER AGENTS OR ANTIMETASTATIC AGENTS USING FSTL1 AND COMBINATION DRUG THEREOF” (PHARMA FOODS INTERNATIONAL CO., LTD., priority 2015, published 2018).

Test system: mouse lung cancer 3LL
Assay: Combined use with CPA in subcutaneously mouse lung cancer 3LL-transplanted model (Example 35)
Format: in vivo
Details: CPA 2 mg/mouse/day i.p. days 4-7; anti-FSTL1 antibody 5 mg/kg i.p. days 8 and 11

O=P1(N(CCCl)CCCl)NCCCO1 (stereo not shown) [CPA, cyclophosphamide]
subcutaneous tumor growth / antitumor effect: strongly suppressed subcutaneous tumor growth
